From PubChem BioAssay AID330 (DTP/NCI, 2004)
Values joined by “and” are separate entries in the source; they are usually repeats but may differ in a detail not shown here. Identical values can stand only once. Toxic doses and inconclusive results are not listed. Rule for the calls: active = survival T/C of 150% or more; inactive = T/C below 125% in these data.

System: P388 leukemia ip, CD2F1 mice, survival T/C
Assay: NCI In Vivo Anticancer Drug Screen. Data for tumor model P388 Leukemia (intraperitoneal) in CD2F1 (CDF1) mice
Conditions: endpoint: median survival time, higher = longer survival
In short: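 Mice carrying the transplanted tumor received test compound or vehicle. Survival was recorded in each group, and the value is the treated-group measurement divided by that of the vehicle-treated control group.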

[1] = dose: 50.0 mg/kg/injection, schedule: Q01DX005 (ip), vehicle: distilled water + alcohol
[2] = dose: 100.0 mg/kg/injection, schedule: Q01DX005 (ip), vehicle: distilled water + alcohol
[3] = dose: 200.0 mg/kg/injection, schedule: Q01DX005 (ip), vehicle: distilled water + alcohol
[4] = dose: 50.0 mg/kg/injection, schedule: Q01DX005 (ip), vehicle: saline with Tween-80
[5] = dose: 100.0 mg/kg/injection, schedule: Q01DX005 (ip), vehicle: saline with Tween-80
[6] = dose: 200.0 mg/kg/injection, schedule: Q01DX005 (ip), vehicle: saline with Tween-80
[7] = dose: 100.0 mg/kg/injection, schedule: Q01DX001 (ip), vehicle: saline with Tween-80
[8] = dose: 200.0 mg/kg/injection, schedule: Q01DX001 (ip), vehicle: saline with Tween-80
[9] = dose: 50.0 mg/kg/injection, schedule: Q01DX005 (ip), vehicle: Klucel (hydroxypropylcellulose) (HPC)
[10] = dose: 100.0 mg/kg/injection, schedule: Q01DX005 (ip), vehicle: Klucel (hydroxypropylcellulose) (HPC)
[11] = dose: 200.0 mg/kg/injection, schedule: Q01DX005 (ip), vehicle: Klucel (hydroxypropylcellulose) (HPC)

Measured: T/C

COc1ccc(C(c2cc(C(C)(C)C)cc(C(C)(C)C)c2O)N2CCCCC2)cc1 (stereo unspecified)
inactive: [1] 97 % of control | [2] 100 % of control | [3] 99 % of control

Nc1nnc2nc(CC(=O)Cc3ccccc3)c(CC(=O)Cc3ccccc3)nn12
inactive: dose: 60.0 mg/kg/injection, schedule: Q01DX005 (ip), vehicle: saline 101 % of control | dose: 120.0 mg/kg/injection, schedule: Q01DX005 (ip), vehicle: saline 100 % of control | dose: 240.0 mg/kg/injection, schedule: Q01DX005 (ip), vehicle: saline 100 % of control

COC(=S)SCN(CSC(=S)OC)c1ccccc1Cl
inactive: dose: 100.0 mg/kg/injection, schedule: Q04DX003 (ip), vehicle: saline 100 % of control | dose: 200.0 mg/kg/injection, schedule: Q04DX003 (ip), vehicle: saline 100 % of control | dose: 400.0 mg/kg/injection, schedule: Q04DX003 (ip), vehicle: saline 118 % of control

C=CS(=O)(=O)OCCCl
inactive: dose: 6.25 mg/kg/injection, schedule: Q01DX009 (ip), vehicle: saline with Tween-80 108 % of control and 109 % of control and 111 % of control | dose: 18.75 mg/kg/injection, schedule: Q01DX009 (ip), vehicle: saline with Tween-80 117 % of control

COc1cccc(N=Nc2c(-c3ccccc3)nn(C(=S)S)c2C)c1
inactive: [4] 93 % of control | [5] 93 % of control | [6] 91 % of control

CC(CCC1(O)OC2CC3C4CC=C5CC(OC6OC(CO)C(OC7OC(C)C(O)C(O)C7O)C(O)C6O)CCC5(C)C4CCC3(C)C2C1(C)C)COC1OC(C)C(O)C(O)C1O (stereo unspecified)
inactive: dose: 2.5 mg/kg/injection, schedule: Q01DX005 (ip), vehicle: Klucel (hydroxypropylcellulose) (HPC) 100 % of control | dose: 5.0 mg/kg/injection, schedule: Q01DX005 (ip), vehicle: Klucel (hydroxypropylcellulose) (HPC) 88 % of control

NP(N)(=O)NC(=O)c1ccc(F)cc1
inactive: [4] 100 % of control | [5] 100 % of control

O=C(O)/C(=C\c1c(Cl)n(-c2ccccc2)c2ccccc12)NC(=O)c1ccccc1
inactive: [7] 92 % of control | [8] 88 % of control

C1CCC2C(C1)CCC1COCN12 (stereo unspecified)
inactive: dose: 12.5 mg/kg/injection, schedule: Q01DX005 (ip), vehicle: Klucel (hydroxypropylcellulose) (HPC) 98 % of control | dose: 12.5 mg/kg/injection, schedule: Q01DX005 (ip), vehicle: saline 108 % of control | dose: 25.0 mg/kg/injection, schedule: Q01DX005 (ip), vehicle: Klucel (hydroxypropylcellulose) (HPC) 100 % of control | dose: 25.0 mg/kg/injection, schedule: Q01DX005 (ip), vehicle: saline 100 % of control | [9] 105 % of control | dose: 50.0 mg/kg/injection, schedule: Q01DX005 (ip), vehicle: saline 103 % of control and 119 % of control | [10] 114 % of control | dose: 100.0 mg/kg/injection, schedule: Q01DX005 (ip), vehicle: saline 118 % of control and 124 % of control | dose: 200.0 mg/kg/injection, schedule: Q01DX005 (ip), vehicle: saline 101 % of control

O=C1c2ccccc2C(=O)c2ncccc21
inactive: dose: 100.0 mg/kg/injection, schedule: Q04DX003 (ip), vehicle: saline with Tween-80 100 % of control | dose: 200.0 mg/kg/injection, schedule: Q04DX003 (ip), vehicle: saline with Tween-80 99 % of control | dose: 400.0 mg/kg/injection, schedule: Q04DX003 (ip), vehicle: saline with Tween-80 100 % of control

COc1ccc(/C=N\N=C(/[O-])c2ccccc2O)cc1.COc1ccc(/C=N\N=C(/[O-])c2ccccc2O)cc1.[Ni+2]
inactive: dose: 50.0 mg/kg/injection, schedule: Q04DX002 (ip), vehicle: saline with Tween-80 93 % of control | dose: 100.0 mg/kg/injection, schedule: Q04DX002 (ip), vehicle: saline with Tween-80 86 % of control | dose: 200.0 mg/kg/injection, schedule: Q04DX002 (ip), vehicle: saline with Tween-80 88 % of control

COC(CNC(=O)Nc1cccnc1)[CH2][Hg][Cl] (stereo unspecified)
inactive: dose: 25.0 mg/kg/injection, schedule: Q04DX003 (ip), vehicle: saline with Tween-80 91 % of control | dose: 50.0 mg/kg/injection, schedule: Q04DX003 (ip), vehicle: saline with Tween-80 116 % of control

O=C1c2sccc2C2C1N2C(=O)C(F)(F)F (stereo unspecified)
inactive: [4] 95 % of control | [5] 98 % of control | [6] 104 % of control

CCOC(=O)c1ccc2c(c1)NCc1cccc(OC)c1O2
inactive: dose: 60.0 mg/kg/injection, schedule: Q01DX005 (ip), vehicle: Klucel (hydroxypropylcellulose) (HPC) 100 % of control | dose: 120.0 mg/kg/injection, schedule: Q01DX005 (ip), vehicle: Klucel (hydroxypropylcellulose) (HPC) 103 % of control | dose: 240.0 mg/kg/injection, schedule: Q01DX005 (ip), vehicle: Klucel (hydroxypropylcellulose) (HPC) 100 % of control

N#CC1C(=O)NC(=O)C(C#N)C1C(Cl)(Cl)Cl (stereo unspecified)
inactive: dose: 50.0 mg/kg/injection, schedule: Q01DX009 (ip), vehicle: Klucel (hydroxypropylcellulose) (HPC) 100 % of control | dose: 100.0 mg/kg/injection, schedule: Q01DX009 (ip), vehicle: Klucel (hydroxypropylcellulose) (HPC) 93 % of control | dose: 200.0 mg/kg/injection, schedule: Q01DX009 (ip), vehicle: Klucel (hydroxypropylcellulose) (HPC) 102 % of control

COc1ccc2c(c1)CC/C(=C\C1(Sc3ccccc3)CC1)C2O (stereo unspecified)
inactive: [4] 102 % of control | [5] 102 % of control | [6] 98 % of control

O=C(O)C1=C(C(=O)O)C2c3ccccc3C1c1ccccc12
inactive: [4] 99 % of control | [5] 90 % of control | [6] 103 % of control

CC(NC(=O)OCC1c2ccccc2-c2ccccc21)C(=O)O (stereo unspecified)
inactive: [9] 103 % of control | [10] 98 % of control | [11] 96 % of control

C/C=C/c1cccc(OC)c1OC
inactive: [7] 108 % of control | [8] 120 % of control | dose: 400.0 mg/kg/injection, schedule: Q01DX001 (ip), vehicle: saline with Tween-80 110 % of control

CCOC(=O)Nc1nn(-c2ccccn2)c(=O)[nH]1
inactive: [1] 107 % of control | [2] 101 % of control | [3] 99 % of control

CCCCCCCC[N+](C)(C)Cc1ccc(Oc2ccc(C[N+](C)(C)CCCCCCCC)cc2)cc1
inactive: dose: 6.25 mg/kg/injection, schedule: Q04DX003 (ip), vehicle: saline 108 % of control | dose: 12.5 mg/kg/injection, schedule: Q04DX003 (ip), vehicle: saline 110 % of control | dose: 25.0 mg/kg/injection, schedule: Q04DX003 (ip), vehicle: saline 110 % of control

Cc1ccc2c(c1)C(=O)n1cccc1C(O)N2 (stereo unspecified)
inactive: dose: 0.1 mg/kg/injection, schedule: Q01DX005 (ip), vehicle: water 100 % of control | dose: 0.2 mg/kg/injection, schedule: Q01DX005 (ip), vehicle: water 99 % of control | dose: 0.4 mg/kg/injection, schedule: Q01DX005 (ip), vehicle: water 99 % of control | dose: 0.8 mg/kg/injection, schedule: Q01DX005 (ip), vehicle: water 98 % of control | dose: 1.6 mg/kg/injection, schedule: Q01DX005 (ip), vehicle: water 89 % of control | dose: 5.0 mg/kg/injection, schedule: Q01DX005 (ip), vehicle: distilled water + Tween-80 98 % of control | dose: 10.0 mg/kg/injection, schedule: Q01DX005 (ip), vehicle: distilled water + Tween-80 95 % of control | dose: 20.0 mg/kg/injection, schedule: Q01DX005 (ip), vehicle: distilled water + Tween-80 92 % of control | dose: 40.0 mg/kg/injection, schedule: Q01DX005 (ip), vehicle: distilled water + Tween-80 98 % of control | dose: 80.0 mg/kg/injection, schedule: Q01DX005 (ip), vehicle: distilled water + Tween-80 92 % of control

O=C(NCc1ccc(S(=O)(=O)F)cc1)Oc1ccc([N+](=O)[O-])cc1
inactive: dose: 7.5 mg/kg/injection, schedule: Q01DX005 (ip), vehicle: saline with Tween-80 102 % of control | dose: 15.0 mg/kg/injection, schedule: Q01DX005 (ip), vehicle: saline with Tween-80 96 % of control | dose: 30.0 mg/kg/injection, schedule: Q01DX005 (ip), vehicle: saline with Tween-80 99 % of control | dose: 60.0 mg/kg/injection, schedule: Q01DX005 (ip), vehicle: saline with Tween-80 99 % of control and 112 % of control

COC(=O)C1=C(C(=O)OC)P2(C)(C)ON(c3ccccc3)C(C(=O)c3ccccc3)N2C1(c1ccccc1)c1ccccc1 (stereo unspecified)
inactive: [9] 100 % of control | [10] 93 % of control | [11] 98 % of control

COC(=O)C1=C(C(=O)OC)C2CCCOC2=C(C)C1 (stereo unspecified)
inactive: [4] 96 % of control | [5] 95 % of control | [6] 93 % of control

CC1=CC(Cc2ccccc2)N(C)C(C(N)=O)C1 (stereo unspecified)
inactive: [9] 102 % of control | [10] 101 % of control
